26 compounds from patent US20250206722A1, “SMALL MOLECULE INHIBITORS OF TEA DOMAIN FAMILY MEMBERS” (The Scripps Research Institute, priority 2022, published 2025) can be followed below.

What all share (assay type): cell-based
The subject of assay [1] is NCI-H226 cells. The assay is described as follows: NCI-H226 proliferation assay (Wuxi AppTec). Conditions: Homo sapiens, 168 h, 7 days, CellTiter-Glo, top dose 10, 3-fold dilution, 9 doses. On the procedure: […] Proliferation Assay (From Wuxi AppTec CO.):
Day −1: Seeding cells • (1) Equilibrate cell culture medium to 37° C. • (2) Remove and discard the culture medium. • (3) Briefly rinse the cell layer with PBS to remove all traces of serum that contains […]. • (4) Add 2-3 mL of Trypsin-EDTA solution to flask and observe cells under an inverted microscope until cell layer is dispersed. • (5) Add 6-8 mL of growth medium to terminate the digestion of Trypsin/EDTA. • (6) Centrifuge the mixture (Trypsin EDTA and the growth medium) at 1000 rpm for 5 mins. • (7) Discard the supernatant, suspend the cell precipitation with the fresh growth medium, then take 1 mL the cell suspension to count cells with Vi-cell XR cell viability analyzer. • (8) Adjust the cell density to 500 cells/well for 384-well plates. • (9) Add 50 µL/well volume cell suspension to the assay plate. • (10) Add […] media to the control columns. • (11) Incubate the plate at 37° C., 5% CO2 for overnight. Day 0: Compounds treatment • (1) Add cpds to each well by Tecan HP D300E. The top dose is […], 3-fold dilution and 9 doses. DMSO final concentration will be normalized to 0.2%. • (2) Incubate the assay plate at 37° C., 5% CO2 for 7 days. Day 7: Plate read • (1) Equilibrate the assay plate to the room temperature for nearly 30 minutes. • (2) Add […] CellTiter-Glo reagent to each well and shake the plate for 1 min, incubate 10 min and keep them from light. • (3) Detect the plate by EnVision. Data analysis:
Max: Average of the DMSO group Min: Average of medium group.

Assay [2] deals with NCI-H226 cells. The assay can be described thus: NCI-H226 proliferation assay (in house). Conditions: Homo sapiens, 120 h, 5 days, Cell TiterGlo, 20-point 1:2 dilution from 20 μM. The gist of the method: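 Viability by CellTiter-Glo luminescence after 5-day compound exposure at 37 °C, 5% CO2. Compounds added 24 h post-seeding (500 cells/well, RPMI 1640 with 10% FBS) as 20-point, 2-fold series from 20 μM final, triplicate wells.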
On the technique in general: ATP-based viability assays read luminescence as a measure of living cells.

For assay [3], the system named is transcriptional activity of TEADs. The assay can be described thus: TEAD reporter assay (MCF7 TEAD-LUC reporter cells). Conditions: Homo sapiens, 24 hours, BrightGlo luminescence. The gist of the method:
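Luminescence (BrightGlo) was read after 24 h of compound treatment at 37 °C, 5 % CO2. Cells had been seeded at 5,000 per well in DMEM with 10 % FBS and insulin and rested 24 h first. Dosing used 20 points, 1:2 dilution from 20 μM final, triplicates.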
(In general: In a reporter assay the amount or activity of a reporter protein is the signal.)

As usually defined, the IC50 is the point on the concentration scale where inhibition reaches its midpoint. A higher IC50 goes with lower potency.

Structures are written as SMILES.

For `C=CC(=O)N1CCN(c2nccnc2N2CC(c3ccc(F)cc3)C2)CC1` [Example 107, 1-(4-(3-(3-(4-fluorophenyl)azetidin-1-yl)pyrazin-2-yl)piperazin-1-yl)prop-2-en-1-one], the results for the IC50 (in the assay on NCI-H226 cells [1]; in the assay with NCI-H226 cells [2]; in assay [3]) were 0.049 µM, 0.018 µM and 0.7 nM, respectively.

As to `C=CC(=O)N1CC=C(c2cccnc2Oc2ccc(C(F)(F)F)nc2)CC1` [Example 153, 1-(2-((6-(trifluoromethyl)pyridin-3-yl)oxy)-3′,6′-dihydro-[3,4′-bipyridin]-1′(2′H)-yl)prop-2-en-1-one], the figures for the IC50 (with NCI-H226 cells [1]; in the assay with NCI-H226 cells [2]; in assay [3]) were 0.065 µM, 0.034 µM and 1.4 nM, respectively.

Take `C=CC(=O)N1CCN(c2nccnc2Nc2ccc(C#N)cc2)CC1` [Example 38, 4-((3-(4-acryloylpiperazin-1-yl)pyrazin-2-yl)amino)benzonitrile]: in the assay on NCI-H226 cells [1], inhibition was half-maximal at 0.42 µM (IC50).

In the case of `C=C(F)C(=O)N1CCC(c2nccnc2Oc2ccc(C(F)(F)F)cn2)CC1` [Example 76, 2-fluoro-1-(4-(3-((5-(trifluoromethyl)pyridin-2-yl)oxy)pyrazin-2-yl)piperidin-1-yl)prop-2-en-1-one], the IC50 in the assay on NCI-H226 cells [1] worked out at 0.104 µM; with NCI-H226 cells [2], 0.424 µM.

In the assay on NCI-H226 cells [1], `C=CC(=O)N1CC=C(c2nccnc2Nc2ccc(OC(F)(F)F)nc2)CC1` [Example 57, 1-(4-(3-((6-(trifluoromethoxy)pyridin-3-yl)amino)pyrazin-2-yl)-3,6-dihydropyridin-1(2H)-yl)prop-2-en-1-one] gave an IC50 of 0.036 µM. This counts as double-digit nanomolar.

As to `C=CC(=O)N1CC=C(c2nccnc2Oc2ccc(C(F)(F)F)cn2)CC1` [Example 74, 1-(4-(3-((5-(trifluoromethyl)pyridin-2-yl)oxy)pyrazin-2-yl)-3,6-dihydropyridin-1(2H)-yl)prop-2-en-1-one], the IC50 worked out at 0.121 µM in the assay on NCI-H226 cells [1], 0.449 µM in the assay on NCI-H226 cells [2] and 2.4 nM in assay [3].

As to `C=CC(=O)N1CCC(c2cccnc2Oc2cnc(C(F)(F)F)nc2)CC1` [Example 159, 1-(4-(2-((2-(trifluoromethyl)pyrimidin-5-yl)oxy)pyridin-3-yl)piperidin-1-yl)prop-2-en-1-one], the IC50 with NCI-H226 cells [1] was 0.051 µM; in the assay on NCI-H226 cells [2], 0.022 µM; in assay [3], 1.8 nM.

In the case of `C#CCC1CN(c2nccnc2Nc2ccc(C(F)(F)F)cc2)CCN1C(=O)C=C` (stereo not drawn) [Example 23, 1-(2-(prop-2-yn-1-yl)-4-(3-((4-(trifluoromethyl)phenyl)amino)pyrazin-2-yl)piperazin-1-yl)prop-2-en-1-one], the IC50 in the assay on NCI-H226 cells [1] is 0.151 µM; in the assay on NCI-H226 cells [2], 0.651 µM; in assay [3], 0.3 nM.

On to `C=CC(=O)N1CCC(c2cncnc2Oc2ccc(C(F)(F)F)nc2)CC1` [Example 126, 1-(4-(4-((6-(trifluoromethyl)pyridin-3-yl)oxy)pyrimidin-5-yl)piperidin-1-yl)prop-2-en-1-one], for which the figures for the IC50 (with NCI-H226 cells [1]; with NCI-H226 cells [2]; in assay [3]) were 0.339 µM, 0.364 µM and 19.1 nM, respectively.

Take `C=CC(=O)N1CCN(c2ccnnc2Nc2ccc(C(F)(F)F)cn2)CC1` [Example 120, 1-(4-(3-((5-(trifluoromethyl)pyridin-2-yl)amino)pyridazin-4-yl)piperazin-1-yl)prop-2-en-1-one]: the IC50 in the assay with NCI-H226 cells [1] was 0.205 µM.

In turn, `C=CC(=O)N1CCC(O)(c2nccnc2Oc2ccc(C(F)(F)F)nc2)CC1` [Example 83, 1-(4-hydroxy-4-(3-((6-(trifluoromethyl)pyridin-3-yl)oxy)pyrazin-2-yl)piperidin-1-yl)prop-2-en-1-one] showed an IC50 in the assay on NCI-H226 cells [1] of 0.263 µM.

As for `C=CC(=O)N1CC=C(c2cccnc2Nc2ccc(C(F)(F)F)nc2)CC1` [Example 145, 1-(2-((6-(trifluoromethyl)pyridin-3-yl)amino)-3′,6′-dihydro-[3,4′-bipyridin]-1′(2′H)-yl)prop-2-en-1-one], the figures for the IC50 (with NCI-H226 cells [1]; in the assay on NCI-H226 cells [2]; in assay [3]) were 0.017 µM, 0.029 µM and 2.4 nM, respectively.

Consider `C=CC(=O)N1CCN(c2nccnc2N2CC3(CC(C(F)(F)F)C3)C2)CC1` [Example 110, 1-(4-(3-(6-(trifluoromethyl)-2-azaspiro[3.3]heptan-2-yl)pyrazin-2-yl)piperazin-1-yl)prop-2-en-1-one], for which the IC50 in the assay with NCI-H226 cells [1] came to 0.046 µM; with NCI-H226 cells [2], 0.067 µM; in assay [3], 3 nM.

With `C=CC(=O)N1CCN(c2ccnnc2Nc2ccc(C(F)(F)F)nc2)CC1` [Example 121, 1-(4-(3-((6-(trifluoromethyl)pyridin-3-yl)amino)pyridazin-4-yl)piperazin-1-yl)prop-2-en-1-one], the half-maximal inhibitory concentration (IC50) in the assay with NCI-H226 cells [1] came out at 1.4 µM.

`C=C(F)C(=O)N1CCN(c2nccnc2Oc2cnc(C(F)(F)F)nc2)CC1` [Example 88, 2-fluoro-1-(4-(3-((2-(trifluoromethyl)pyrimidin-5-yl)oxy)pyrazin-2-yl)piperazin-1-yl)prop-2-en-1-one]: the figures for the IC50 (with NCI-H226 cells [1]; in the assay with NCI-H226 cells [2]; in assay [3]) were 0.027 µM, 0.047 µM and 1.9 nM, respectively.

Take `C=CC(=O)N1CCN(c2nc(C)c(C)nc2Nc2ccc(C(F)(F)F)nc2)CC1` [Example 113, 1-(4-(5,6-dimethyl-3-((6-(trifluoromethyl)pyridin-3-yl)amino)pyrazin-2-yl)piperazin-1-yl)prop-2-en-1-one]: the results for the IC50 (in the assay on NCI-H226 cells [1]; with NCI-H226 cells [2]; in assay [3]) were 0.032 µM, 0.04 µM and 2.7 nM, respectively.

As for `C=CC(=O)N1CC=C(c2nccnc2Nc2ccc(C(F)(F)F)cn2)CC1` [Example 43, 1-(4-(3-((5-(trifluoromethyl)pyridin-2-yl)amino)pyrazin-2-yl)-3,6-dihydropyridin-1(2H)-yl)prop-2-en-1-one], the 50% inhibitory concentration (IC50) in the assay with NCI-H226 cells [1] was found to be 0.011 µM; in the assay with NCI-H226 cells [2], 0.006 µM; in assay [3] it was 1 nM.

Consider `C=CC(=O)N1CC=C(c2nccnc2Nc2cnc(C(F)(F)F)nc2)CC1` [Example 59, 1-(4-(3-((2-(trifluoromethyl)pyrimidin-5-yl)amino)pyrazin-2-yl)-3,6-dihydropyridin-1(2H)-yl)prop-2-en-1-one], for which, in the assay with NCI-H226 cells [1], the IC50 is 0.1 µM. This counts as sub-micromolar.

With `C=C(F)C(=O)N1CCC(c2nc(C)cnc2Oc2ccc(C(F)(F)F)nc2)CC1` [Example 115, 2-fluoro-1-(4-(6-methyl-3-((6-(trifluoromethyl)pyridin-3-yl)oxy)pyrazin-2-yl)piperidin-1-yl)prop-2-en-1-one], the IC50 in the assay with NCI-H226 cells [1] is 0.041 µM; with NCI-H226 cells [2], 0.074 µM.

Regarding `C=CC(=O)N1CC=C(c2cccnc2Nc2ccc(OC(F)(F)F)nc2)CC1` [Example 147, 1-(2-((6-(trifluoromethoxy)pyridin-3-yl)amino)-3′,6′-dihydro-[3,4′-bipyridin]-1′(2′H)-yl)prop-2-en-1-one], the IC50 amounted to 0.149 µM in the assay on NCI-H226 cells [1] and 2.3 nM in assay [3].

On to `C=CC(=O)N1CCN(c2nccnc2Nc2ccc(C(F)(F)F)c(OC)c2)CC1` [Example 37, 1-(4-(3-((3-methoxy-4-(trifluoromethyl)phenyl)amino)pyrazin-2-yl)piperazin-1-yl)prop-2-en-1-one], for which the IC50 in the assay on NCI-H226 cells [1] is 0.078 µM. This counts as double-digit nanomolar.

`C=CC(=O)N1CCC(c2nccnc2Oc2cnc(C(F)(F)F)nc2)CC1` [Example 91, 1-(4-(3-((2-(trifluoromethyl)pyrimidin-5-yl)oxy)pyrazin-2-yl)piperidin-1-yl)prop-2-en-1-one]: the IC50 with NCI-H226 cells [1] was 0.042 µM; in the assay on NCI-H226 cells [2], 0.075 µM.

For the compound `C=C(F)C(=O)N1CC=C(c2nccnc2Nc2ccc(OC(F)(F)F)nc2)CC1` [Example 58, 2-fluoro-1-(4-(3-((6-(trifluoromethoxy)pyridin-3-yl)amino)pyrazin-2-yl)-3,6-dihydropyridin-1(2H)-yl)prop-2-en-1-one], the concentration for half-maximal inhibition (IC50) in the assay on NCI-H226 cells [1] is 0.283 µM. This lies in the sub-micromolar range.

Take `C=CC(=O)N1CCC(n2nccc2C(=O)c2ccc(C(F)(F)F)cc2)CC1` [Example 164, 1-(4-(5-(4-(trifluoromethyl)benzoyl)-1H-pyrazol-1-yl)piperidin-1-yl)prop-2-en-1-one]: the IC50 was determined as 0.045 µM in the assay with NCI-H226 cells [1] and 0.4 nM in assay [3].

Compound `C=C(F)C(=O)N1CC=C(c2nccnc2Nc2cnc(C(F)(F)F)nc2)CC1` [Example 60, 2-fluoro-1-(4-(3-((2-(trifluoromethyl)pyrimidin-5-yl)amino)pyrazin-2-yl)-3,6-dihydropyridin-1(2H)-yl)prop-2-en-1-one] gave a concentration for half-maximal inhibition (IC50) in the assay on NCI-H226 cells [1] of 1.31 µM.

`C=C(F)C(=O)N1CCC(c2nccnc2Oc2cnc(C(F)(F)F)nc2)CC1` [Example 92, 2-fluoro-1-(4-(3-((2-(trifluoromethyl)pyrimidin-5-yl)oxy)pyrazin-2-yl)piperidin-1-yl)prop-2-en-1-one]: the IC50 was found to be 1.12 µM in the assay on NCI-H226 cells [1] and 5.64 µM in the assay on NCI-H226 cells [2].
